According to ChEMBL document CHEMBL3885861, “Open TG-GATES”:

Species: Rattus norvegicus
Assay: Open TG-GATES - Regimen: Daily Repeat
Assay type: toxicity, organism-based, Sprague-Dawley
Parameters: regimen Daily Repeat, gender Male, age 6 weeks
Conditions: in vivo, po, 40 mg/kg, route gavage, dose level Low; for APTT / Bas / Eos / Fbg / Hb / Ht / Lym / MCH / MCHC / MCV / Mono / Neu / PT / Plat / RBC / Ret / WBC: tissue Blood; for KIDNEY_L / KIDNEY_R / KIDNEY_TOTAL: tissue Kidney; for LIVER: tissue Liver; for A/G / ALP / ALT / AST / BUN / CRE / Ca / Cl / DBIL / GLC / IP / K / LDH / Na / PL / RALB / TBIL / TC / TG / TP / gamma-GTP: tissue Plasma

SMILES: COc1ccc(Cc2nccc3cc(OC)c(OC)cc23)cc1OC [PAPAVERINE]
- TERMINAL_BW (72 h, time 3 day): 246.9 g
- APTT (72 h, time 3 day): 21.6 s
- Bas (72 h, time 3 day): 0%
- Eos (72 h, time 3 day): 0.6%
- Fbg (72 h, time 3 day): 325.8 mg/dL
- Hb (72 h, time 3 day): 13.1 g/dL
- Ht (72 h, time 3 day): 39.6%
- Lym (72 h, time 3 day): 77.6%
- MCH (72 h, time 3 day): 21.1 pg
- MCHC (72 h, time 3 day): 33.2%
- MCV (72 h, time 3 day): 63.6 fL
- Mono (72 h, time 3 day): 2.8%
- Neu (72 h, time 3 day): 18%
- PT (72 h, time 3 day): 15.5 s
- Plat (72 h, time 3 day): 124.7 x10_4/uL
- RBC (72 h, time 3 day): 624.6 x10_4/ul
- Ret (72 h, time 3 day): 6.8%
- WBC (72 h, time 3 day): 102.4 x10_2/uL
- KIDNEY_L (72 h, time 3 day): 1 g
- KIDNEY_R (72 h, time 3 day): 1.1 g
- KIDNEY_TOTAL (72 h, time 3 day): 2.1 g
- LIVER (72 h, time 3 day): 11.6 g
- A/G (72 h, time 3 day): 1.2
- ALP (72 h, time 3 day): 1776.4 IU/L
- ALT (72 h, time 3 day): 44.2 IU/L
- AST (72 h, time 3 day): 73 IU/L
- BUN (72 h, time 3 day): 17 mg/dL
- CRE (72 h, time 3 day): 0.1 mg/dL
- Ca (72 h, time 3 day): 10.9 mg/dL
- Cl (72 h, time 3 day): 107.6 meq/L
- DBIL (72 h, time 3 day): 0 mg/dL
- GLC (72 h, time 3 day): 185.4 mg/dL
- IP (72 h, time 3 day): 7.5 mg/dL
- K (72 h, time 3 day): 4.5 meq/L
- LDH (72 h, time 3 day): 184 IU/L
- Na (72 h, time 3 day): 142.2 meq/L
- PL (72 h, time 3 day): 153.4 mg/dL
- RALB (72 h, time 3 day): 3 g/dL
- TBIL (72 h, time 3 day): 0.008 mg/dL
- TC (72 h, time 3 day): 77.8 mg/dL
- TG (72 h, time 3 day): 126 mg/dL
- TP (72 h, time 3 day): 5.6 g/dL
- gamma-GTP (72 h, time 3 day): 1.4 IU/L
- TERMINAL_BW ([…], time 7 day): 281.8 g
- TERMINAL_BW ([…], time 14 day): 316.9 g
- TERMINAL_BW ([…], time 28 day): 422.2 g
- APTT ([…], time 7 day): 21.6 s
- Bas ([…], time 7 day): 0%
- Eos ([…], time 7 day): 1%
- Fbg ([…], time 7 day): 317.8 mg/dL
- Hb ([…], time 7 day): 13.1 g/dL
- Ht ([…], time 7 day): 38.8%
- Lym ([…], time 7 day): 80.2%
- MCH ([…], time 7 day): 20.8 pg
- MCHC ([…], time 7 day): 33.7%
- MCV ([…], time 7 day): 61.8 fL
- Mono ([…], time 7 day): 2.2%
- Neu ([…], time 7 day): 15.8%
- PT ([…], time 7 day): 15.4 s
- Plat ([…], time 7 day): 123 x10_4/uL
- RBC ([…], time 7 day): 628 x10_4/ul
- Ret ([…], time 7 day): 6.3%
- WBC ([…], time 7 day): 124.1 x10_2/uL
- APTT ([…], time 14 day): 23 s
- Bas ([…], time 14 day): 0%
- Eos ([…], time 14 day): 0.6%
- Fbg ([…], time 14 day): 342.6 mg/dL
- Hb ([…], time 14 day): 14.2 g/dL
- Ht ([…], time 14 day): 41.8%
- Lym ([…], time 14 day): 79%
- MCH ([…], time 14 day): 19.7 pg
- MCHC ([…], time 14 day): 34%
- MCV ([…], time 14 day): 57.9 fL
- Mono ([…], time 14 day): 2%
- Neu ([…], time 14 day): 16.6%
- PT ([…], time 14 day): 15.6 s
- Plat ([…], time 14 day): 111.2 x10_4/uL
- RBC ([…], time 14 day): 722.6 x10_4/ul
- Ret ([…], time 14 day): 4.6%
- WBC ([…], time 14 day): 128.3 x10_2/uL
- APTT ([…], time 28 day): 25.2 s
- Bas ([…], time 28 day): 0%
- Eos ([…], time 28 day): 1%
- Fbg ([…], time 28 day): 319 mg/dL
- Hb ([…], time 28 day): 14.5 g/dL
- Ht ([…], time 28 day): 43.8%
- Lym ([…], time 28 day): 80%
- MCH ([…], time 28 day): 19.1 pg
- MCHC ([…], time 28 day): 33.1%
- MCV ([…], time 28 day): 57.7 fL
- Mono ([…], time 28 day): 1.8%
- Neu ([…], time 28 day): 15.8%
- PT ([…], time 28 day): 15.8 s
- Plat ([…], time 28 day): 105.3 x10_4/uL
- RBC ([…], time 28 day): 760.4 x10_4/ul
- Ret ([…], time 28 day): 3.1%
- WBC ([…], time 28 day): 151.9 x10_2/uL
- KIDNEY_L ([…], time 7 day): 1.2 g
- KIDNEY_R ([…], time 7 day): 1.2 g
- KIDNEY_TOTAL ([…], time 7 day): 2.4 g
- KIDNEY_L ([…], time 14 day): 1.2 g
- KIDNEY_R ([…], time 14 day): 1.2 g
- KIDNEY_TOTAL ([…], time 14 day): 2.5 g
- KIDNEY_L ([…], time 28 day): 1.4 g
- KIDNEY_R ([…], time 28 day): 1.5 g
- KIDNEY_TOTAL ([…], time 28 day): 2.9 g
- LIVER ([…], time 7 day): 13.2 g
- LIVER ([…], time 14 day): 14.1 g
- LIVER ([…], time 28 day): 17.3 g
- A/G ([…], time 7 day): 1.2
- ALP ([…], time 7 day): 1841.6 IU/L
- ALT ([…], time 7 day): 40.6 IU/L
- AST ([…], time 7 day): 67.2 IU/L
- BUN ([…], time 7 day): 19.8 mg/dL
- CRE ([…], time 7 day): 0.1 mg/dL
- Ca ([…], time 7 day): 10.8 mg/dL
- Cl ([…], time 7 day): 106 meq/L
- DBIL ([…], time 7 day): 0 mg/dL
- GLC ([…], time 7 day): 189.6 mg/dL
- IP ([…], time 7 day): 6.8 mg/dL
- K ([…], time 7 day): 4.5 meq/L
- LDH ([…], time 7 day): 157 IU/L
- Na ([…], time 7 day): 140.8 meq/L
- PL ([…], time 7 day): 155.6 mg/dL
- RALB ([…], time 7 day): 3 g/dL
- TBIL ([…], time 7 day): 0.002 mg/dL
- TC ([…], time 7 day): 76.4 mg/dL
- TG ([…], time 7 day): 132.6 mg/dL
- TP ([…], time 7 day): 5.5 g/dL
- gamma-GTP ([…], time 7 day): 2.6 IU/L
- A/G ([…], time 14 day): 1.1
- ALP ([…], time 14 day): 1354 IU/L
- ALT ([…], time 14 day): 40.6 IU/L
- AST ([…], time 14 day): 67.4 IU/L
- BUN ([…], time 14 day): 20.2 mg/dL
- CRE ([…], time 14 day): 0.2 mg/dL
- Ca ([…], time 14 day): 10.2 mg/dL
- Cl ([…], time 14 day): 106.4 meq/L
- DBIL ([…], time 14 day): 0 mg/dL
- GLC ([…], time 14 day): 193.4 mg/dL
- IP ([…], time 14 day): 6.9 mg/dL
- K ([…], time 14 day): 4.2 meq/L
- LDH ([…], time 14 day): 151.6 IU/L
- Na ([…], time 14 day): 143 meq/L
- PL ([…], time 14 day): 139.2 mg/dL
- RALB ([…], time 14 day): 2.9 g/dL
- TBIL ([…], time 14 day): 0.014 mg/dL
- TC ([…], time 14 day): 64.2 mg/dL
- TG ([…], time 14 day): 168 mg/dL
- TP ([…], time 14 day): 5.7 g/dL
- gamma-GTP ([…], time 14 day): 2 IU/L
- A/G ([…], time 28 day): 1.1
- ALP ([…], time 28 day): 1003.2 IU/L
- ALT ([…], time 28 day): 36.4 IU/L
- AST ([…], time 28 day): 62.2 IU/L
- BUN ([…], time 28 day): 20 mg/dL
- CRE ([…], time 28 day): 0.2 mg/dL
- Ca ([…], time 28 day): 10.2 mg/dL
- Cl ([…], time 28 day): 106 meq/L
- DBIL ([…], time 28 day): 0 mg/dL
- GLC ([…], time 28 day): 196 mg/dL
- IP ([…], time 28 day): 6 mg/dL
- K ([…], time 28 day): 4.1 meq/L
- LDH ([…], time 28 day): 141.6 IU/L
- Na ([…], time 28 day): 141.8 meq/L
- PL ([…], time 28 day): 142.4 mg/dL
- RALB ([…], time 28 day): 3.2 g/dL
- TBIL ([…], time 28 day): 0.008 mg/dL
- TC ([…], time 28 day): 68.6 mg/dL
- TG ([…], time 28 day): 152.4 mg/dL
- TP ([…], time 28 day): 6 g/dL
- gamma-GTP ([…], time 28 day): 2.6 IU/L
